Experimental data as given in ChEMBL document CHEMBL3885881, “DrugMatrix”.

Species on record: Rattus norvegicus
Experiment: DrugMatrix - Regimen: Daily Repeat
Assay type: toxicity, organism-based, Sprague-Dawley
Set-up: regimen Daily Repeat, gender Male, age 6-8 weeks
Conditions: in vivo, po, 47 mg/kg, route oral GAVAGE, dose level Low, […]; for ABSOLUTE BASOPHIL / ABSOLUTE EOSINOPHIL / ABSOLUTE LYMPHOCYTE / ABSOLUTE MONOCYTE / ABSOLUTE SEGMENTED NEUTROPHIL / BASOPHIL / EOSINOPHIL / ERYTHROCYTE COUNT / HEMATOCRIT / HEMOGLOBIN / LEUKOCYTE COUNT / LYMPHOCYTE / MEAN CORPUSCULAR HEMOGLOBIN / MEAN CORPUSCULAR HEMOGLOBIN CONCENTRATION / MEAN CORPUSCULAR VOLUME / MONOCYTE / NEUTROPHIL / NUCLEATED RED BLOOD CELLS / PLATELET COUNT: tissue Blood; for ALANINE AMINOTRANSFERASE / ALBUMIN / ALKALINE PHOSPHATASE / ASPARTATE AMINOTRANSFERASE / BLOOD UREA NITROGEN / CARBON DIOXIDE / CHLORIDE / CHOLESTEROL / CREATINE PHOSPHOKINASE / CREATININE / GLUCOSE / LACTATE DEHYDROGENASE / LIPASE / PHOSPHORUS / POTASSIUM / SODIUM / TOTAL BILIRUBIN / TOTAL PROTEIN / URIC ACID: tissue Plasma

Q: Which “ABSOLUTE BASOPHIL” value (72 h, time 3 day) does the source give for `Cc1cn([C@H]2C[C@H](N=[N+]=[N-])[C@@H](CO)O2)c(=O)[nH]c1=O` [ZIDOVUDINE] here?
A: The value was 0 CELLS/uL.

Q: What about the “ABSOLUTE EOSINOPHIL” value (72 h, time 3 day) of the same compound?
A: Its value is 0 CELLS/uL.

Q: And the “ABSOLUTE LYMPHOCYTE” value (72 h, time 3 day)?
A: The value was 11829.67 CELLS/uL.

Q: And the “ABSOLUTE MONOCYTE” value (72 h, time 3 day)?
A: The value was 82 CELLS/uL.

Q: What about the “ABSOLUTE SEGMENTED NEUTROPHIL” value (72 h, time 3 day) of the same compound?
A: The value was 955 CELLS/uL.

Q: What about the BASOPHIL (72 h, time 3 day) of the same compound?
A: Its BASOPHIL is 0%.

Q: And the EOSINOPHIL (72 h, time 3 day)?
A: The EOSINOPHIL was 0%.

Q: And the “ERYTHROCYTE COUNT” value (72 h, time 3 day)?
A: The value was 5.26 x10E6/uL.

Q: What about the HEMATOCRIT (72 h, time 3 day) of the same compound?
A: Its HEMATOCRIT is 33.23%.

Q: And the HEMOGLOBIN (72 h, time 3 day)?
A: The HEMOGLOBIN was 13.43 G/DL.

Q: And the “LEUKOCYTE COUNT” value (72 h, time 3 day)?
A: The value was 12.87 x10E3/uL.

Q: What about the LYMPHOCYTE (72 h, time 3 day) of the same compound?
A: The LYMPHOCYTE was 92%.

Q: And the “MEAN CORPUSCULAR HEMOGLOBIN” value (72 h, time 3 day)?
A: Its value is 25.67 pg.

Q: What about the “MEAN CORPUSCULAR HEMOGLOBIN CONCENTRATION” value (72 h, time 3 day) of the same compound?
A: The value was 40.47 G/DL.

Q: And the “MEAN CORPUSCULAR VOLUME” value (72 h, time 3 day)?
A: Its value is 63.37 fL.

Q: And the MONOCYTE (72 h, time 3 day)?
A: Its MONOCYTE is 0.67%.

Q: And the NEUTROPHIL (72 h, time 3 day)?
A: The NEUTROPHIL was 7.33%.

Q: And the “NUCLEATED RED BLOOD CELLS” value (72 h, time 3 day)?
A: The value was 0 /100WBC.

Q: What about the “PLATELET COUNT” value (72 h, time 3 day) of the same compound?
A: The value was 1228 x10E3/uL.

Q: What about the “ALANINE AMINOTRANSFERASE” value (72 h, time 3 day) of the same compound?
A: The value was 73.67 u/L.

Q: And the ALBUMIN (72 h, time 3 day)?
A: Its ALBUMIN is 4.1 G/DL.

Q: And the “ALKALINE PHOSPHATASE” value (72 h, time 3 day)?
A: Its value is 470 u/L.

Q: What about the “ASPARTATE AMINOTRANSFERASE” value (72 h, time 3 day) of the same compound?
A: Its value is 86 u/L.

Q: And the “BLOOD UREA NITROGEN” value (72 h, time 3 day)?
A: The value was 12 mg/dL.

Q: And the “CARBON DIOXIDE” value (72 h, time 3 day)?
A: Its value is 32.67 mmol/L.

Q: And the CHLORIDE (72 h, time 3 day)?
A: Its CHLORIDE is 102.33 MEQ/L.

Q: And the CHOLESTEROL (72 h, time 3 day)?
A: Its CHOLESTEROL is 68 mg/dL.

Q: And the “CREATINE PHOSPHOKINASE” value (72 h, time 3 day)?
A: The value was 377 u/L.

Q: And the CREATININE (72 h, time 3 day)?
A: Its CREATININE is 0.14 mg/dL.

Q: What about the GLUCOSE (72 h, time 3 day) of the same compound?
A: The GLUCOSE was 156.33 mg/dL.

Q: What about the “LACTATE DEHYDROGENASE” value (72 h, time 3 day) of the same compound?
A: The value was 235.67 u/L.

Q: And the LIPASE (72 h, time 3 day)?
A: Its LIPASE is 11.67 u/L.

Q: And the PHOSPHORUS (72 h, time 3 day)?
A: The PHOSPHORUS was 10.87 mg/dL.

Q: What about the POTASSIUM (72 h, time 3 day) of the same compound?
A: The POTASSIUM was 6.46 MEQ/L.

Q: What about the SODIUM (72 h, time 3 day) of the same compound?
A: The SODIUM was 141.6 MEQ/L.

Q: And the “TOTAL BILIRUBIN” value (72 h, time 3 day)?
A: Its value is 0.17 mg/dL.

Q: What about the “TOTAL PROTEIN” value (72 h, time 3 day) of the same compound?
A: Its value is 5.57 G/DL.

Q: What about the “URIC ACID” value (72 h, time 3 day) of the same compound?
A: Its value is 1.57 mg/dL.

Q: And the “ABSOLUTE BASOPHIL” value (120 h, time 5 day)?
A: Its value is 0 CELLS/uL.

Q: And the “ABSOLUTE EOSINOPHIL” value (120 h, time 5 day)?
A: Its value is 0 CELLS/uL.

Q: And the “ABSOLUTE LYMPHOCYTE” value (120 h, time 5 day)?
A: Its value is 15346 CELLS/uL.

Q: What about the “ABSOLUTE MONOCYTE” value (120 h, time 5 day) of the same compound?
A: The value was 401.67 CELLS/uL.

Q: What about the “ABSOLUTE SEGMENTED NEUTROPHIL” value (120 h, time 5 day) of the same compound?
A: Its value is 2019 CELLS/uL.

Q: What about the BASOPHIL (120 h, time 5 day) of the same compound?
A: The BASOPHIL was 0%.

Q: What about the EOSINOPHIL (120 h, time 5 day) of the same compound?
A: The EOSINOPHIL was 0%.

Q: And the “ERYTHROCYTE COUNT” value (120 h, time 5 day)?
A: The value was 5.55 x10E6/uL.

Q: And the HEMATOCRIT (120 h, time 5 day)?
A: Its HEMATOCRIT is 35.13%.

Q: And the HEMOGLOBIN (120 h, time 5 day)?
A: Its HEMOGLOBIN is 14.03 G/DL.

Q: And the “LEUKOCYTE COUNT” value (120 h, time 5 day)?
A: The value was 17.77 x10E3/uL.

Q: What about the LYMPHOCYTE (120 h, time 5 day) of the same compound?
A: Its LYMPHOCYTE is 86%.

Q: And the “MEAN CORPUSCULAR HEMOGLOBIN” value (120 h, time 5 day)?
A: The value was 25.3 pg.

Q: And the “MEAN CORPUSCULAR HEMOGLOBIN CONCENTRATION” value (120 h, time 5 day)?
A: Its value is 39.97 G/DL.

Q: And the “MEAN CORPUSCULAR VOLUME” value (120 h, time 5 day)?
A: Its value is 63.37 fL.

Q: What about the MONOCYTE (120 h, time 5 day) of the same compound?
A: Its MONOCYTE is 2.33%.

Q: And the NEUTROPHIL (120 h, time 5 day)?
A: The NEUTROPHIL was 11.67%.

Q: What about the “NUCLEATED RED BLOOD CELLS” value (120 h, time 5 day) of the same compound?
A: Its value is 0 /100WBC.

Q: And the “PLATELET COUNT” value (120 h, time 5 day)?
A: The value was 1138.33 x10E3/uL.

Q: And the “ALANINE AMINOTRANSFERASE” value (120 h, time 5 day)?
A: Its value is 62 u/L.

Q: What about the ALBUMIN (120 h, time 5 day) of the same compound?
A: The ALBUMIN was 4.3 G/DL.

Q: And the “ALKALINE PHOSPHATASE” value (120 h, time 5 day)?
A: The value was 450.33 u/L.

Q: What about the “ASPARTATE AMINOTRANSFERASE” value (120 h, time 5 day) of the same compound?
A: Its value is 81.67 u/L.

Q: And the “BLOOD UREA NITROGEN” value (120 h, time 5 day)?
A: The value was 12.33 mg/dL.

Q: What about the “CARBON DIOXIDE” value (120 h, time 5 day) of the same compound?
A: Its value is 30.67 mmol/L.

Q: And the CHLORIDE (120 h, time 5 day)?
A: Its CHLORIDE is 101 MEQ/L.

Q: And the CHOLESTEROL (120 h, time 5 day)?
A: The CHOLESTEROL was 72.67 mg/dL.

Q: What about the “CREATINE PHOSPHOKINASE” value (120 h, time 5 day) of the same compound?
A: Its value is 317 u/L.

Q: What about the CREATININE (120 h, time 5 day) of the same compound?
A: Its CREATININE is 0.25 mg/dL.

Q: And the GLUCOSE (120 h, time 5 day)?
A: The GLUCOSE was 162.33 mg/dL.

Q: And the “LACTATE DEHYDROGENASE” value (120 h, time 5 day)?
A: The value was 138 u/L.

Q: And the LIPASE (120 h, time 5 day)?
A: The LIPASE was 11 u/L.

Q: What about the PHOSPHORUS (120 h, time 5 day) of the same compound?
A: The PHOSPHORUS was 11.9 mg/dL.

Q: What about the POTASSIUM (120 h, time 5 day) of the same compound?
A: The POTASSIUM was 6.72 MEQ/L.

Q: What about the SODIUM (120 h, time 5 day) of the same compound?
A: The SODIUM was 143.47 MEQ/L.

Q: What about the “TOTAL BILIRUBIN” value (120 h, time 5 day) of the same compound?
A: Its value is 0.2 mg/dL.

Q: What about the “TOTAL PROTEIN” value (120 h, time 5 day) of the same compound?
A: The value was 5.87 G/DL.

Q: And the “URIC ACID” value (120 h, time 5 day)?
A: The value was 1.9 mg/dL.
